logIC50 data for 21 compounds are collected here from ChEMBL document CHEMBL1140602, “A simple, yet highly accurate, QSAR model captures the complement inhibitory activity of compstatin” (Bioorg Med Chem, 2007).

Positions of bridges follow the written chain, without caps; N, C: chain ends. Non-standard residues stand in square brackets, D forms with d. Residues, ends and D or L forms follow the SMILES beside them. Abu = CC[C@H](N)C(=O)O

The assay can be described thus: Inhibition of C3b activation relative to compstatin.
In turn, `CC[C@H](C)[C@H](NC(C)=O)C(=O)N[C@H]1CSSC[C@@H](C(=O)N[C@H](C(N)=O)[C@@H](C)O)NC(=O)[C@H](CCCNC(=N)N)NC(=O)[C@H](Cc2cnc[nH]2)NC(=O)[C@H](Cc2cnc[nH]2)NC(=O)CNC(=O)[C@H](Cc2c[nH]c3ccccc23)NC(=O)[C@H](CC(=O)O)NC(=O)[C@H](CC(N)=O)NC(=O)[C@H](C(C)C)NC(=O)[C@H](CC(C)C)NC1=O` (Ac-ICLVNDWGHHRCT-NH2; disulfide 2-12) registered a logIC50 of 0.16.

`CC[C@H](C)[C@H](NC(C)=O)C(=O)N[C@H]1CSSC[C@@H](C(=O)N[C@H](C(N)=O)[C@@H](C)O)NC(=O)[C@H](CCCNC(=N)N)NC(=O)[C@H](Cc2cnc[nH]2)NC(=O)[C@H](Cc2cnc[nH]2)NC(=O)CNC(=O)[C@H](Cc2c[nH]c3ccccc23)NC(=O)[C@H](CC(=O)O)NC(=O)[C@H](CCC(N)=O)NC(=O)[C@H](C(C)C)NC(=O)[C@H](CC(C)C)NC1=O` (Ac-ICLVQDWGHHRCT-NH2; disulfide 2-12) had a logIC50 of 0.079.

`CC[C@H](C)[C@H](NC(=O)[C@@H]1CSSC[C@H](NC(=O)[C@@H](NC(C)=O)[C@@H](C)CC)C(=O)N[C@@H](C(C)C)C(=O)N[C@@H](C)C(=O)N[C@@H](CCC(N)=O)C(=O)N[C@@H](CC(=O)O)C(=O)N[C@@H](Cc2c[nH]c3ccccc23)C(=O)NCC(=O)N[C@@H](C)C(=O)N[C@@H](Cc2cnc[nH]2)C(=O)N[C@@H](CCCNC(=N)N)C(=O)N1)C(N)=O` (Ac-ICVAQDWGAHRCI-NH2; disulfide 2-12) gave a logIC50 of 0.477.

Compound `CC[C@H](C)[C@H](NC(C)=O)C(=O)N[C@H]1CSSC[C@@H](C(=O)N[C@H](C(N)=O)[C@@H](C)O)NC(=O)[C@H](CCCNC(=N)N)NC(=O)[C@H](Cc2cnc[nH]2)NC(=O)[C@H](Cc2cnc[nH]2)NC(=O)CNC(=O)[C@H](Cc2c[nH]c3ccccc23)NC(=O)[C@H](CC(=O)O)NC(=O)[C@H](CCC(N)=O)NC(=O)[C@H](Cc2ccccc2)NC(=O)[C@H](C(C)C)NC1=O` (Ac-ICVFQDWGHHRCT-NH2; disulfide 2-12) came in with a logIC50 of 0.721.

Regarding `CC[C@H](C)[C@H](NC(C)=O)C(=O)N[C@H]1CSSC[C@@H](C(=O)N[C@H](C(N)=O)[C@@H](C)O)NC(=O)[C@H](CCCNC(=N)N)NC(=O)[C@H](Cc2cnc[nH]2)NC(=O)[C@H](Cc2cnc[nH]2)NC(=O)CNC(=O)[C@H](Cc2c[nH]c3ccccc23)NC(=O)[C@H](CC(=O)O)NC(=O)[C@H](CCC(N)=O)NC(=O)[C@H](Cc2cnc[nH]2)NC(=O)[C@H](C(C)C)NC1=O` (Ac-ICVHQDWGHHRCT-NH2; disulfide 2-12), the logIC50 came to 0.708.

The compound `CC[C@H](C)[C@H](NC(C)=O)C(=O)N[C@H]1CSSC[C@@H](C(=O)N[C@H](C(N)=O)[C@@H](C)O)NC(=O)[C@H](CCCNC(=N)N)NC(=O)[C@H](Cc2cnc[nH]2)NC(=O)[C@H](Cc2cnc[nH]2)NC(=O)CNC(=O)[C@H](Cc2c[nH]c3ccccc23)NC(=O)[C@H](CC(=O)O)NC(=O)[C@H](CCC(N)=O)NC(=O)[C@H](CO)NC(=O)[C@H](C(C)C)NC1=O` (Ac-ICVSQDWGHHRCT-NH2; disulfide 2-12) registered a logIC50 of 0.022.

`CC[C@H](C)[C@H](NC(C)=O)C(=O)N[C@H]1CSSC[C@@H](C(=O)N[C@H](C(N)=O)[C@@H](C)O)NC(=O)[C@H](C)NC(=O)[C@H](Cc2cnc[nH]2)NC(=O)[C@H](Cc2cnc[nH]2)NC(=O)CNC(=O)[C@H](Cc2c[nH]c3ccccc23)NC(=O)[C@H](CC(=O)O)NC(=O)[C@H](CC(N)=O)NC(=O)[C@H](C(C)C)NC(=O)[C@H](C(C)C)NC1=O` (Ac-ICVVNDWGHHACT-NH2; disulfide 2-12) had a logIC50 of -0.699.

For the compound `CC[C@H](C)[C@H](NC(C)=O)C(=O)N[C@H]1CSSC[C@@H](C(=O)N[C@H](C(N)=O)[C@@H](C)O)NC(=O)[C@H](CCCNC(=N)N)NC(=O)[C@H](Cc2cnc[nH]2)NC(=O)[C@H](Cc2cnc[nH]2)NC(=O)CNC(=O)[C@H](Cc2c[nH]c3ccccc23)NC(=O)[C@H](CC(=O)O)NC(=O)[C@H](CC(N)=O)NC(=O)[C@H](C(C)C)NC(=O)[C@H](C(C)C)NC1=O` (Ac-ICVVNDWGHHRCT-NH2; disulfide 2-12), the logIC50 turned out to be 0.456.

As to `CC[C@H](C)[C@H](NC(C)=O)C(=O)N[C@H]1CSSC[C@@H](C(=O)N[C@H](C(N)=O)[C@@H](C)O)NC(=O)[C@H](C)NC(=O)[C@H](Cc2cnc[nH]2)NC(=O)[C@H](C)NC(=O)CNC(=O)[C@H](Cc2c[nH]c3ccccc23)NC(=O)[C@H](CC(=O)O)NC(=O)[C@H](CCC(N)=O)NC(=O)[C@H](C(C)C)NC(=O)[C@H](C(C)C)NC1=O` (Ac-ICVVQDWGAHACT-NH2; disulfide 2-12), the logIC50 was found to be 0.084.

The compound `CC[C@H](C)[C@H](NC(C)=O)C(=O)N[C@H]1CSSC[C@@H](C(=O)N[C@H](C(N)=O)[C@@H](C)O)NC(=O)[C@H](CCCNC(=N)N)NC(=O)[C@H](Cc2cnc[nH]2)NC(=O)[C@H](C)NC(=O)CNC(=O)[C@H](Cc2c[nH]c3ccccc23)NC(=O)[C@H](CC(=O)O)NC(=O)[C@H](CCC(N)=O)NC(=O)[C@H](C(C)C)NC(=O)[C@H](C(C)C)NC1=O` (Ac-ICVVQDWGAHRCT-NH2; disulfide 2-12) came in with a logIC50 of 0.617.

`CC[C@H](C)[C@H](NC(=O)[C@@H]1CSSC[C@H](NC(=O)[C@@H](NC(C)=O)[C@@H](C)CC)C(=O)N[C@@H](C(C)C)C(=O)N[C@@H](C(C)C)C(=O)N[C@@H](CCC(N)=O)C(=O)N[C@@H](CC(=O)O)C(=O)N[C@@H](Cc2c[nH]c3ccccc23)C(=O)NCC(=O)N[C@@H](Cc2cnc[nH]2)C(=O)N[C@@H](Cc2cnc[nH]2)C(=O)N[C@@H](CCCNC(=N)N)C(=O)N1)C(N)=O` (Ac-ICVVQDWGHHRCI-NH2; disulfide 2-12) registered a logIC50 of 0.574.

`CC[C@@H]1NC(=O)CNC(=O)[C@H](Cc2c[nH]c3ccccc23)NC(=O)[C@H](CC(=O)O)NC(=O)[C@H](CCC(N)=O)NC(=O)[C@H](Cc2c[nH]c3ccccc23)NC(=O)[C@H](C(C)C)NC(=O)[C@@H](NC(=O)[C@@H](NC(C)=O)[C@@H](C)CC)CSSC[C@@H](C(=O)N[C@H](C(N)=O)[C@@H](C)O)NC(=O)[C@H](CCCNC(=N)N)NC(=O)[C@H](Cc2cnc[nH]2)NC1=O` (Ac-ICVWQDWG[Abu]HRCT-NH2; disulfide 2-12) came in with a logIC50 of 1.55.

`CSCC[C@H](NC(C)=O)C(=O)N[C@H]1CSSC[C@@H](C(=O)N[C@@H](Cc2ccccc2)C(N)=O)NC(=O)[C@H](CCCNC(=N)N)NC(=O)[C@H](Cc2cnc[nH]2)NC(=O)CNC(=O)CNC(=O)[C@H](Cc2c[nH]c3ccccc23)NC(=O)[C@H](CC(=O)O)NC(=O)[C@H](CCC(N)=O)NC(=O)[C@H](Cc2cnc[nH]2)NC(=O)[C@H](C(C)C)NC1=O` (Ac-MCVHQDWGGHRCF-NH2; disulfide 2-12) came in with a logIC50 of -0.863.

For `CC(=O)N[C@@H](CCCNC(=N)N)C(=O)N[C@H]1CSSC[C@@H](C(=O)N[C@H](C(N)=O)[C@@H](C)O)NC(=O)[C@H](CCCNC(=N)N)NC(=O)[C@H](Cc2cnc[nH]2)NC(=O)[C@H](Cc2cnc[nH]2)NC(=O)CNC(=O)[C@H](Cc2c[nH]c3ccccc23)NC(=O)[C@H](CC(=O)O)NC(=O)[C@H](CCC(N)=O)NC(=O)[C@H](C(C)C)NC(=O)[C@H](C(C)C)NC1=O` (Ac-RCVVQDWGHHRCT-NH2; disulfide 2-12), the logIC50 turned out to be 0.176.

On to `CC(C)[C@@H]1NC(=O)[C@H](C(C)C)NC(=O)[C@@H](N)CSSC[C@@H](C(=O)O)NC(=O)[C@H](CCCNC(=N)N)NC(=O)[C@H](Cc2cnc[nH]2)NC(=O)[C@H](C)NC(=O)CNC(=O)[C@H](Cc2c[nH]c3ccccc23)NC(=O)[C@H](CC(=O)O)NC(=O)[C@H](CCC(N)=O)NC1=O` (H-CVVQDWGAHRC-OH; disulfide 1-11), for which the logIC50 is -0.097.

Take `CC(C)[C@@H]1NC(=O)[C@H](C(C)C)NC(=O)[C@@H](N)CSSC[C@@H](C(=O)O)NC(=O)[C@H](CCCNC(=N)N)NC(=O)[C@H](C)NC(=O)[C@H](Cc2cnc[nH]2)NC(=O)CNC(=O)[C@H](Cc2c[nH]c3ccccc23)NC(=O)[C@H](CC(=O)O)NC(=O)[C@H](CCC(N)=O)NC1=O` (H-CVVQDWGHARC-OH; disulfide 1-11): the logIC50 is -0.79.

For the compound `CC(C)[C@@H]1NC(=O)[C@H](C(C)C)NC(=O)[C@@H](N)CSSC[C@@H](C(=O)O)NC(=O)[C@H](C)NC(=O)[C@H](Cc2cnc[nH]2)NC(=O)[C@H](Cc2cnc[nH]2)NC(=O)CNC(=O)[C@H](Cc2c[nH]c3ccccc23)NC(=O)[C@H](CC(=O)O)NC(=O)[C@H](CCC(N)=O)NC1=O` (H-CVVQDWGHHAC-OH; disulfide 1-11), the logIC50 is -0.767.

As for `CC(C)[C@@H]1NC(=O)[C@H](C(C)C)NC(=O)[C@@H](N)CSSC[C@@H](C(N)=O)NC(=O)[C@H](CCCNC(=N)N)NC(=O)[C@H](Cc2cnc[nH]2)NC(=O)[C@H](Cc2cnc[nH]2)NC(=O)CNC(=O)[C@H](Cc2c[nH]c3ccccc23)NC(=O)[C@H](CC(=O)O)NC(=O)[C@H](CCC(N)=O)NC1=O` (H-CVVQDWGHHRC-NH2; disulfide 1-11), the logIC50 is -0.439.

As to `CC(C)[C@@H]1NC(=O)[C@H](C(C)C)NC(=O)[C@@H](N)CSSC[C@@H](C(=O)O)NC(=O)[C@H](CCCNC(=N)N)NC(=O)[C@H](Cc2cnc[nH]2)NC(=O)[C@H](Cc2cnc[nH]2)NC(=O)CNC(=O)[C@H](Cc2c[nH]c3ccccc23)NC(=O)[C@H](CC(=O)O)NC(=O)[C@H](CCC(N)=O)NC1=O` (H-CVVQDWGHHRC-OH; disulfide 1-11), the logIC50 is -0.439.

`CC(C)[C@@H]1NC(=O)[C@H](C(C)C)NC(=O)[C@@H](N)CSSC[C@@H](C(=O)N[C@H](C(N)=O)[C@@H](C)O)NC(=O)[C@H](CCCNC(=N)N)NC(=O)[C@H](Cc2cnc[nH]2)NC(=O)[C@H](Cc2cnc[nH]2)NC(=O)CNC(=O)[C@H](Cc2c[nH]c3ccccc23)NC(=O)[C@H](CC(=O)O)NC(=O)[C@H](CCC(N)=O)NC1=O` (H-CVVQDWGHHRCT-NH2; disulfide 1-11): the logIC50 was -0.319.

Take `CC(C)[C@@H]1NC(=O)[C@@H](NC(=O)[C@@H](N)CC(=O)O)CSSC[C@@H](C(=O)N[C@H](C(N)=O)[C@@H](C)O)NC(=O)[C@H](CCCCN)NC(=O)[C@H](Cc2cnc[nH]2)NC(=O)[C@H](Cc2cnc[nH]2)NC(=O)CNC(=O)[C@H](Cc2c[nH]c3ccccc23)NC(=O)[C@H](CC(=O)O)NC(=O)[C@H](CCC(N)=O)NC(=O)[C@H](C(C)C)NC1=O` (H-DCVVQDWGHHKCT-NH2; disulfide 2-12): the logIC50 was -0.264.
